According to US12103969B2, “Anti-Siglec antibody, pharmaceutical composition comprising the same, and uses thereof” (Academia Sinica, priority 2018, dated 2024):
Where two headings read alike, the source gives them in different places.

Legend:
Siglec-3.Fc = biological target: T1, Siglec-3.Fc (Homo sapiens, UniProt P20138); experiment: Bio-layer interferometry: Siglec-3.Fc and Neu5Ac(α2-6)GalGlcNAc glycans; type: binding
T1 construct: human Siglec-3/-7 extracellular domain (ECD); made in house; host or cells: FreeStyle 293 Expression System (Invitrogen)
Description: (§1) The interaction between human Siglec.Fc fusion protein and HBV was determined by the Bio-layer interferometry. In brief, the biosensor was immobilized with the Siglec.Fc fusion protein, and the binding between the Siglec.Fc and HBV was performed with running buffer (10 mM Tris HCl, 150 mM NaCl, 2 mM CaCl2, 2 mM MgCl2, pH 7.4) at room temperature. The valence between HBV and human Siglec-3 was determined, which correlates the strength of multivalent association with that of monovalent association as shown in the following: • KA, surf=F (S×10^−2)^n−1×(KA, mono)^n, where KA, surf is thereciprocal of KD (HBV and Siglec-3), KA, mono is the reciprocal of KD (Biantennary a2-6 linked sialylglycopeptide and Siglec-3); n is the number of valency number; F is the statistic factor in the system and S is equal to 40(Å), which is estimated according to crystal structure of Siglec-3 published on RCSB protein data bank (Number: 5J0B). Three individual BLI results were used to calculate out the n (number of valency). Generation and Characterization of Anti-Siglec mAbs and Selection of Antagonistic Antibody

[1] = biological target: T2, hHBV and Siglec-3 interaction (Homo sapiens, UniProt P20138); experiment: Competition assay of hHBV and Siglec-3 interaction by sialoglycan; type: binding
T2 construct: human Siglec-3/-7 extracellular domain (ECD); made in house; host or cells: FreeStyle 293 Expression System (Invitrogen); HBsAg/HBV purified from CHB patients' blood
Description: (§2) Sialidase S and sialidase C were used to remove sialoglycan from HBV or sialoglycans, respectively. Sialidase S releases only α(2-3)-linked Neu5Ac, while Sialidase C release both α(2-3) and α(2-6)-linked Neu5Ac. The sialidase-treated substrates were used for HBV-Siglec-3 binding assay and competition assay.
Siglec ECD.Fc fusion proteins (5 μg) were coated on microtitre plates, followed by addition of HBsAg (100 ng) in the presence various concentrations of following glycans: Neu5Ac(α2-6)-Gal-GlcNAc, Neu5Ac(α2-3)-Gal-GlcNAc, and Gal-GlcNAc at 4° C. for 12 hours with Protein free blocking buffer. The sialidase-treated and un-treated sialyglycans were used for competition assay.

hHBV [2] = experiment: Immunoprecipitation of hHBV by Siglec ECD.Fc fusion proteins; type: binding, hepatitis B virus; conditions: Western blot with anti-HBs
Description: HBV ([…]) was incubated with recombinant Siglec-3/-7/-9 ECD.Fc fusion proteins, respectively, for 16 hours at 4° C., followed by incubation with Sepharose-conjugated Protein A beads for immunoprecipitation. The samples were fractionated on 12% SDS-PAGE before blotting to PVDF membrane and incubated in blocking buffer (0.05% Tween 20 in TBS containing 5% BSA) at 4° C. overnight. Blots were incubated with […] polyclonal goat-anti-HBs Ab for 1 hour at room temperature, followed by incubation with Streptavidin-HRP (1:10000 dilution) for another 1 hour at room temperature, and were visualized by ECL.

mHBV = experiment: Bio-layer interferometry: immobilized Fc-lectin and mHBV; type: binding, hepatitis B virus; conditions: BLI, same condition as hHBV
Description: (§3) HBV was purified from blood samples of chronic hepatitis B (CHB) patients and HBV-transgenic mice, respectively. The protocol for HBV was purified by conventional method. HBV viral load was determinate by RT-PCR according to a standard HBV plasmid. HBsAg level was quantified by the HBsAg ELISA kit.
as §1

hHBV [3] = experiment: Bio-layer interferometry: immobilized Fc-lectin and hHBV; type: binding, hepatitis B virus
Text: as §3, §2, §1

[4] = untreated glycan, various concentrations

T2 sequence (P20138 18-259 limits assumed): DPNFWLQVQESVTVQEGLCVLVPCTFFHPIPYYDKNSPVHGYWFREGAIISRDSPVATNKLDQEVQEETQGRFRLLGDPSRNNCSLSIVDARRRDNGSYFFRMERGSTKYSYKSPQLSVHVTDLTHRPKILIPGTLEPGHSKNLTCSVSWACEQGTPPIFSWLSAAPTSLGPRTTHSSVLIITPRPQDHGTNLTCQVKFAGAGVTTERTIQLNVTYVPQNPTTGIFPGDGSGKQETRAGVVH
T1 sequence (P20138 18-259 limits assumed): as above

Neu5Ac(α2-6)GalGlcNAc
Ka (Siglec-3.Fc; immobilized Siglec-3, cell wraps: value is the mantissa, factor × 10^0 printed in the lines below): 5.44 M⁻¹ s⁻¹
Kd (Siglec-3.Fc; immobilized Siglec-3, cell wraps: value is the mantissa, factor × 10^−3 printed in the lines below): 6.02 s⁻¹
Kd (Siglec-3.Fc; recombinant Siglec-3.Fc (dimeric), full value, unit from Table 1, read-out: equilibrium dissociation constant (KD)): 1590 µM
inhibition of Siglec-3-HBV interaction ([1]; Sialidase C-treated glycan): lost its inhibitory effect
inhibition of Siglec-3-HBV interaction [1, 4]: inhibited Siglec-3-HBV interaction in a dose-dependent manner

Siglec-3: recombinant human Siglec-3 extracellular domain (ECD).Fc fusion protein
pull down of hHBV HBsAg (immunoprecipitation) (hHBV [2]): mainly pulled down glycosylated small HBsAg(h)
binding to mHBV virions (mHBV): did not bind
Ka (hHBV [3]; hHBV Sialidase S treated, cell wraps: value is the mantissa, factor × 10^5 printed in the lines below): 7.11 M⁻¹ s⁻¹
Kd (hHBV [3]; hHBV Sialidase S treated, cell wraps: value is the mantissa, factor × 10^−4 printed in the lines below): 2.73 s⁻¹
Ka (hHBV [3]; hHBV Untreat, cell wraps: value is the mantissa, factor × 10^6 printed in the lines below): 1.18 M⁻¹ s⁻¹
Kd (hHBV [3]; hHBV Untreat, cell wraps: value is the mantissa, factor × 10^−4 printed in the lines below): 6.97 s⁻¹
Kd (hHBV [3]; hHBV virions, full value, unit from Table 2, read-out: KD): 0.000115 µM
Ka (hHBV [3]; hHBV, cell wraps: value is the mantissa, factor × 10^6 printed in the line below): 3.11 M⁻¹ s⁻¹
Kd (hHBV [3]; hHBV, cell wraps: value is the mantissa, factor × 10^−4 printed in the line below): 3.58 s⁻¹
binding between Siglec-3 and hHBV (hHBV [3]; α2-6 linked Neu5Ac removed from hHBV by sialidase C): abolished the binding

Neu5Ac(α2-3)GalGlcNAc
inhibition of Siglec-3-HBV interaction [1, 4]: did not inhibit Siglec-3-HBV interaction

Siglec-9: recombinant Siglec-9 ECD.Fc fusion protein
pull down of hHBV HBsAg (immunoprecipitation) (hHBV [2]): cannot pull down
binding to hHBV (hHBV [3]; hHBV, BLI, same condition as Siglec-3): did not bind

GalGlcNAc
inhibition of Siglec-3-HBV interaction [1, 4]: did not inhibit Siglec-3-HBV interaction
